Where “and” joins values, the source holds several entries; their conditions need not be identical. Equal entries are not always repeated. Where two headings read alike, the source gives them in different places.
Key:
[1] = system: Bacillus pumilus strain K-1; experiment: Inhibition of bacterial growth, filter paper on inoculated agar plates; format: cell-based
Method: Nutrient broth was prepared by mixing 8 grams of BACTO dehydrated nutrient broth per liter of distilled water. […] Samples of the nutrient broth were then inoculated with Bacillus pumilus strain K-1 culture. […]
Nutrient agar was prepared by mixing 23 grams of BACTO nutrient agar per liter of distilled water. The nutrient agar was sterilized in the same way as the nutrient broth. After it has cooled to about 45° C. 250 ml of the nutrient agar solution was aeseptically inoculated with 5 ml of the Bacillus pumilus, K-1 culture prepared in (A), above. Plates of the inoculated nutrient agar were then poured and allowed to harden.
[…] To minimize possible photocatalyzed reactions of the dyes, all preparations were performed under yellow lights and all incubations were performed in the dark.
Schleider and Schuell #740-E filter paper (12.7 mm diameter) was dipped in the dye solution, touched to the side of the beaker to removed excess dye, and placed in the center of the inoculated agar plates (prepared in (B) above). […] The plates were then examined to determine if bacterial growth had been affected by the dye-containing filter paper. […]
Control plates were prepared in which the filter paper contained methanol or a 0.2 molar aqueous solution of phenol. […]

[2] = not told
Method: (§3) If a published reduction potential is not available, suitable techniques for measuring reduction potential are available and can be used. […] This technique involves measurement at 20° C., of an approximately 10^-4 molar solution of the dye in an electrolyte, such as methanol which is 0.05 molar in lithium chloride, using a dropping mercury electrode. The potential values are reported by reference to a silver-silver chloride electrode in a saturated solution of potassium chloride at 20° C.

[3] = system: Enterobacter aerogenes; experiment: Inhibition of bacterial growth, filter paper technique; format: cell-based; settings: Table VIII; 10^-3 molar; Gram -; 37° C./48 hrs
Method: (§1) Schleider and Schuell #740-E filter paper (12.7 mm diameter) was dipped in the dye solution, touched to the side of the beaker to removed excess dye, and placed in the center of the inoculated agar plates (prepared in (B) above). The plates were then incubated at 26° C. for […]. The plates were then examined to determine if bacterial growth had been affected by the dye-containing filter paper. With certain dyes bacterial growth was inhibited in a circular area around the filter paper. With other dyes no such area of inhibition was observed.
(§2) Cultures of various gram-negative and gram-positive bacteria were prepared in nutrient and Tryptic Soy Agar and plates were poured as described in Example 1. Methanolic solutions of cyanine dyes were prepared at 10^-3 molar and applied to the plates using the filter paper technique described in Example 1. Control plates were prepared in which the filter paper contained methanol or a 0.2 molar aqueous solution of phenol. The plates were then incubated at 26° C. or 37° C. for forty-eight hours.

[4] = system: Micrococus luteus; experiment: as above; format: cell-based; settings: Table VIII, 10^-3 molar, Gram +, 26° C./48 hrs; for zone of inhibition at 1000 µM: read-out: Area of Inhibition (diameter)
Method: as §1, §2

[5] = system: Proteus vulgaris; experiment: as above; format: cell-based; settings: Table VIII; 10^-3 molar; Gram -; 37° C./48 hrs
Method: as §1, §2

[6] = system: Escherichia coli, Strain B; experiment: as above; format: cell-based; settings: Table VIII; 10^-3 molar; Gram -; 37° C./48 hrs
Method: as §1, §2

[7] = system: Bacillus megaterium; experiment: as above; format: cell-based; settings: Table VIII, 10^-3 molar, Gram +, Tryptic Soy, 37° C./48 hrs; for zone of inhibition at 1000 µM: Priestia megaterium, read-out: Area of Inhibition (diameter)
Method: as §1, §2

[8] = system: Bacillus cereus; experiment: as above; format: cell-based; settings: Table VIII, 10^-3 molar, Gram +, 26° C./48 hrs; for zone of inhibition at 1000 µM: Bacillus cereus, read-out: Area of Inhibition (diameter)
Method: as §1, §2

[9] = system: Bacillus subtilis; experiment: as above; format: cell-based; settings: Table VIII, 10^-3 molar, Gram +, 26° C./48 hrs, read-out: Area of Inhibition (diameter)
Method: as §1, §2

[10] = system: Micrococcus flavus; experiment: as above; format: cell-based; settings: Table VIII, 10^-3 molar, Gram +, 26° C./48 hrs; for zone of inhibition at 1000 µM: Micrococcus flavus, read-out: Area of Inhibition (diameter)
Method: as §1, §2

[11] = system: Alcaligenes faecalis; experiment: as above; format: cell-based; settings: Table VIII; 10^-3 molar; Gram -; 37° C./48 hrs
Method: as §1, §2

[12] = system: Bacillus pumilus (K-1)
Method: This can be accomplished by contacting a given concentration of the dye with the cells, removing the cells from the dye solution and then comparing the optical density (at λmax) of the remaining dye solution with a control containing the original concentration of the dye. The percentage decrease in optical density indicates the percentage of dye which has been bound to the cells.
The culture was collected by centrifugation at 5,000×g. for 10 minutes, and the resultant pellet was washed several times in cold 0.05 M potassium phosphate buffer, pH 7.0. The pellet was resuspended in the buffer solution to a final optical density of 1.0 at 620 nm as measured with a Bausch and Lomb Spectronic 20.
One-tenth ml of dye solution (1 mg/ml in methanol) was added to a tube containing 5 ml of cell suspension described above and a control tube containing 0.05 M potassium phosphate buffer, pH 7.0. All tubes were well agitated using a Vari-Whirl Mixer (Will Scientific Co.) and then centrifuged at 10,000×g. for 10 minutes.
The percent binding of dye to the cells for each dye, was determined by comparison of the density at λmax of the control supernatant sample with the density at λmax of the supernatant of the cell sample.

[13] = system: the bacteria (various gram-negative and gram-positive); experiment: Binding of dyes to the bacteria of Example 9; settings: determined as in Example 8
Method: In addition, binding of dyes 7, 17 and 24 to the bacteria was determined as in Example 8.

[14] = system: Sea Urchin Eggs; experiment: Inhibition of cell division in fertilized sea urchin eggs; format: cell-based; settings: arbitrary scale 0 to 5, 5 most active; dye 10^-5 to 10^-6 molar, 60 minutes after fertilization
Method: To suspensions in filtered sea water of fertilized sea urchin eggs there was added, three minutes after fertilization, methanolic solutions of the dyes in an amount sufficient to yield a final concentration of dye of between 10^-5 and 10^-6 molar. The final concentration of methanol was, at a maximum 1×10^-4 molar. The eggs were visually observed at 60 minutes after fertilization to determine if cell division and the formation of mitotic apparatus had been inhibited. A rating was assigned based on the concentration of dye required to inhibit cell division and synthesis of DNA.

[15] = Oxidation potential (Eox) of the dye; format: physicochemical; settings: Tables I, II, V, VI
[16] = Reduction potential (ER) of the dye; settings: list of dyes; vs. silver-silver chloride electrode, 20° C.
Method: as §3

[17] = Bacillus pumilus, K1, 48 h, Table VIII, 10^-3 molar, Nutrient, 37° C./48 hrs, read-out: Area of Inhibition (diameter)
[18] = Bacillus pumilus, K1, Table IX, 10^-3 M, read-out: Diameter of Inhibition
[19] = Bacillus pumilus, K1, 72 h, Tables V and VI, 10^-3 molar, three days, read-out: Diameter of Inhibition
[20] = Bacillus pumilus, K1, Table II, 10^-4 molar, 26° C., forty-eight hours, read-out: Diameter of Inhibition
[21] = Bacillus pumilus, K1, Table IX, 10^-4 M, read-out: Diameter of Inhibition
[22] = Table II, 10^-4 molar, 26° C., forty-eight hours

SMILES | ER [2] | reduction potential (ER) [2] | % Bound [12] | binding to the bacteria (in words) [13] | Activity Rating [1] | zone of inhibition at 1000 µM [1, 17] | zone of inhibition at 1000 µM [1, 18] | Area of Inhibition (diameter) [3] | zone of inhibition at 1000 µM [4] | Area of Inhibition (diameter) [5] | Area of Inhibition (diameter) [6] | zone of inhibition at 1000 µM [7] | zone of inhibition at 1000 µM [9] | Area of Inhibition (diameter) [11] | zone of inhibition at 1000 µM [8] | zone of inhibition at 1000 µM [10] | Sea Urchin Eggs Activity [14] | further results
CCN1C(=Cc2oc3ccccc3[n+]2CC)Oc2ccccc21 [Dye 1] | -1.69 | -1.69 volts | 33.6% | – | 39 | 18 mm | 18 mm | No | 22 mm | No | No | 17 mm | 13 mm | No | – | – | – | Area of Inhibition (diameter) [8]: No; Area of Inhibition (diameter) [10]: No
CCN1C(=CC=Cc2oc3ccccc3[n+]2CC)Oc2ccccc21 [Dye 7] | -1.26 | -1.26 volts | 31.7% | found to bind | 100 | 24 mm | 34 mm | No | 16 mm | No | No | 21 mm | 18 mm | No | 14 mm | 19 mm | +4 | zone of inhibition at 1000 µM [1, 19]: 34 mm; zone of inhibition at 100 µM ([1]; Bacillus pumilus, K1, Table I, 10^-4 molar, 26° C., fifty hours, dark, read-out: Diameter of Inhibition): 22.5 mm; zone of inhibition at 100 µM [1, 20]: 25.5 mm; zone of inhibition at 100 µM ([1]; Bacillus pumilus, K1, Table III, 1.0 × 10^-4 M, read-out: Diameter of Inhibition): 26 mm; zone of inhibition at 200 µM ([1]; Bacillus pumilus, K1, Table III, 2.0 × 10^-4 M, read-out: Diameter of Inhibition): 29 mm; zone of inhibition at 25 µM ([1]; Bacillus pumilus, K1, Table III, 2.5 × 10^-5 M, read-out: Diameter of Inhibition): 14.5 mm; zone of inhibition at 50 µM ([1]; Bacillus pumilus, K1, Table III, 5.0 × 10^-5 M, read-out: Diameter of Inhibition): 20 mm; zone of inhibition at 100 µM [1, 21]: 25.5 mm; degree of inhibition compared with phenol (in words) ([1]; dye 7 at 1×10^-4 molar): same degree of inhibition as phenol at 2.13×10^-1 molar; times more active as an inhibitor than phenol ([1]; dye 7 at 1×10^-4 molar vs phenol at 2.13×10^-1 molar): ~2000 times
CCN1C(=CC=Cc2sc3ccccc3[n+]2CC)Sc2ccccc21 [Dye 17] | -1.00 | -1.00 volts | 73.1% | found to bind | 18 and 31 | 17 mm | 19 mm | No | 14 mm | No | No | 14 mm | 15 mm | No | 13 mm | 15 mm | +4 | effect upon diameter of inhibition as a result of changing the anion ([1]; 10^-3 molar, three days): no effect upon diameter of inhibition; zone of inhibition at 1000 µM [1, 19]: 19 mm; zone of inhibition at 100 µM [1, 20]: 16.5 mm; zone of inhibition at 100 µM [1, 21]: 16.5 mm
CCN1C(=CC=Cc2sc3cc([N+](=O)[O-])ccc3[n+]2CC)Sc2cc([N+](=O)[O-])ccc21 [Dye 29] | – | – | – | – | – | – | – | – | – | – | – | – | – | – | – | – | 0 | Diameter of Inhibition ([1]; Table IX, 10^-3 M): None; Activity Rating ([1]; Table IX, 10^-3 M, relative to phenol concentration giving equal diameter, Dye 7 = 100 (dye 20 relative to dye 17)): 0; % Bound ([12]; Table IX): 67.9%; reduction potential (ER) [16]: -0.58 volts

Further lines, with some results ahead:

ER [2] | reduction potential (ER) [2] | % Bound [12] | binding to the bacteria (in words) [13] | SMILES | Activity Rating [1] | zone of inhibition at 1000 µM [1, 17] | zone of inhibition at 1000 µM [1, 18] | Area of Inhibition (diameter) [3] | zone of inhibition at 1000 µM [4] | Area of Inhibition (diameter) [5] | Area of Inhibition (diameter) [6] | zone of inhibition at 1000 µM [7] | zone of inhibition at 1000 µM [9] | Area of Inhibition (diameter) [11] | zone of inhibition at 1000 µM [8] | zone of inhibition at 1000 µM [10] | Sea Urchin Eggs Activity [14] | further results
-.83 | -0.83 volts | 99.4% | – | CCN1C(=CC=CC=Cc2oc3ccccc3[n+]2CC)Oc2ccccc21 [Dye 21] | 66 | 21 mm | 21 mm | No | 14 mm | No | No | 18 mm | 16 mm | No | 14 mm | 18 mm | – | –
– | -0.79 volts | 32.8% | found to bind | CCN1C(=CC=Cc2n(CC)c3nc4ccccc4nc3[n+]2CC)N(CC)c2nc3ccccc3nc21 [Dye 24] | – | 13 mm | 13 mm | Slight | 14 mm | No | No | 14 mm | 13 mm | No | 13.5 mm | 13 mm | 0 | Eox [15]: +1.00; Diameter of Inhibition [1, 22]: None; Diameter of Inhibition ([1]; Table IX, 10^-4 M): None
– | -0.20 volts | 83.7% | – | Cn1c(-c2ccccc2)c(C=CC=C2C(c3ccccc3)=[N+](C)c3ccccc32)c2ccccc21 [Dye 33] | 0 | – | – | No | – | No | No | – | 13 mm | No | – | – | 0 | Eox [15]: > +1.00; Diameter of Inhibition ([1]; Table I, 10^-4 molar, 26° C., fifty hours, dark): None; Diameter of Inhibition [1, 22]: None; Diameter of Inhibition ([1]; Table IX, 10^-3 M): None; Diameter of Inhibition ([1]; Table IX, 10^-4 M): None; Area of Inhibition (diameter) ([1]; Table VIII, 10^-3 molar, Nutrient, 37° C./48 hrs): No; Area of Inhibition (diameter) [4]: Slight; Area of Inhibition (diameter) [7]: No; Area of Inhibition (diameter) [8]: No; Area of Inhibition (diameter) [10]: No

— patent US4232121A, “Process for selecting methine dyes which inhibit cell growth” (Eastman Kodak Company, priority 1978, dated 1980)
